The test addresses CGL2 (Coprinopsis cinerea, UniProt Q9P4R8). The test can be described thus: biochemical.

These results are taken from publication PMC2798750, “Caenorhabditis elegans N-glycan Core β-galactoside Confers Sensitivity towards Nematotoxic Fungal Galectin CGL2” (PLoS Pathogens, 2010).

Sequence of CGL2 (Q9P4R8 whole entry, looked up): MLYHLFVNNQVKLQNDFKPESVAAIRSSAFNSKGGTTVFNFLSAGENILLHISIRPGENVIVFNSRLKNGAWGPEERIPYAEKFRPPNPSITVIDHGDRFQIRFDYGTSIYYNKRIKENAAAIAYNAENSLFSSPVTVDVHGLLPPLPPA

For `CC(=O)N[C@H]1[C@H](OCCCCCN)O[C@H](CO[C@@H]2O[C@@H](C)[C@@H](O[C@@H]3O[C@H](CO)[C@H](O)[C@H](O)[C@H]3O)[C@@H](O)[C@@H]2O)[C@@H](O)[C@@H]1O` [Galβ1,4Fucα1,6GlcNAcβOC5H10NH2], the Kd is roughly 100 µM.

The Kd is the constant that tells how readily two partners part at equilibrium.
